PubChem BioAssay AID248 (DTP/NCI, 2004)
Several values for one entry are separate records, joined by “and”; a condition that tells them apart may be missing. Identical values can stand only once. Toxic doses and inconclusive results are not listed.

Test system: L1210 leukemia ip in BDF1 mice, survival T/C
Assay: NCI In Vivo Anticancer Drug Screen. Data for tumor model L1210 Leukemia (intraperitoneal) in B6D2F1 (BDF1) mice
Settings: endpoint: mean survival time, higher = longer survival
Method in brief: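 Tumor was transplanted into mice, which were then dosed with test compound or vehicle alone. Survival was recorded for each group, and the treated figure was expressed relative to the control figure.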

[1] = dose: 100.0 mg/kg/injection, schedule: Q04DX003 (ip), vehicle: saline
[2] = dose: 200.0 mg/kg/injection, schedule: Q04DX003 (ip), vehicle: saline
[3] = dose: 400.0 mg/kg/injection, schedule: Q04DX003 (ip), vehicle: saline
[4] = dose: 100.0 mg/kg/injection, schedule: Q01DX009 (ip), vehicle: Klucel (hydroxypropylcellulose) (HPC)
[5] = dose: 100.0 mg/kg/injection, schedule: Q04DX003 (ip), vehicle: Klucel (hydroxypropylcellulose) (HPC)
[6] = dose: 200.0 mg/kg/injection, schedule: Q01DX009 (ip), vehicle: Klucel (hydroxypropylcellulose) (HPC)
[7] = dose: 200.0 mg/kg/injection, schedule: Q04DX003 (ip), vehicle: Klucel (hydroxypropylcellulose) (HPC)
[8] = dose: 400.0 mg/kg/injection, schedule: Q01DX009 (ip), vehicle: Klucel (hydroxypropylcellulose) (HPC)
[9] = dose: 400.0 mg/kg/injection, schedule: Q04DX003 (ip), vehicle: Klucel (hydroxypropylcellulose) (HPC)
[10] = dose: 100.0 mg/kg/injection, schedule: Q01DX001 (ip), vehicle: Klucel (hydroxypropylcellulose) (HPC)
[11] = dose: 200.0 mg/kg/injection, schedule: Q01DX001 (ip), vehicle: Klucel (hydroxypropylcellulose) (HPC)
[12] = dose: 400.0 mg/kg/injection, schedule: Q01DX001 (ip), vehicle: Klucel (hydroxypropylcellulose) (HPC)
[13] = dose: 100.0 mg/kg/injection, schedule: Q01DX001 (ip), vehicle: saline
[14] = dose: 200.0 mg/kg/injection, schedule: Q01DX001 (ip), vehicle: saline
[15] = dose: 400.0 mg/kg/injection, schedule: Q01DX001 (ip), vehicle: saline
[16] = dose: 75.0 mg/kg/injection, schedule: Q01DX001 (ip), vehicle: saline
[17] = dose: 150.0 mg/kg/injection, schedule: Q01DX001 (ip), vehicle: saline

`CCN(CC)CCOC(=O)c1cc(=O)n(CCC(C)C)c2ccccc12` was tested, and the T/C [1] was 113 % of control, the T/C [2] was 107 % of control and the T/C [3] was 101 % of control.
In the case of `OC[P+](CO)(CO)CO`, the T/C (dose: 25.0 mg/kg/injection, schedule: Q04DX002 (ip), vehicle: saline) is reported as 113 % of control, the T/C (dose: 50.0 mg/kg/injection, schedule: Q04DX002 (ip), vehicle: saline) is reported as 103 % of control and the T/C (dose: 100.0 mg/kg/injection, schedule: Q04DX002 (ip), vehicle: saline) is reported as 100 % of control and 109 % of control.
`CC(=O)CC(=O)Nc1ccc(-c2ccc(NC(=O)CC(C)=O)c(Cl)c2)cc1Cl` was tested, and the T/C [4] was 95 % of control, the T/C [5] was 98 % of control and the T/C [6] was 97 % of control. The T/C [7] was 98 % of control, the T/C [8] was 93 % of control and the T/C [9] was 91 % of control.
In the case of `CNc1ccccc1C(=O)N/N=C/c1cccc([N+](=O)[O-])c1`, the T/C (dose: 100.0 mg/kg/injection, schedule: Q04DX002 (ip), vehicle: Klucel (hydroxypropylcellulose) (HPC)) is reported as 93 % of control, the T/C (dose: 200.0 mg/kg/injection, schedule: Q04DX002 (ip), vehicle: Klucel (hydroxypropylcellulose) (HPC)) is reported as 96 % of control and the T/C (dose: 400.0 mg/kg/injection, schedule: Q04DX002 (ip), vehicle: Klucel (hydroxypropylcellulose) (HPC)) is reported as 86 % of control.
For `O=C(c1ccccc1)c1ccn[nH]1`, the T/C [10] was 106 % of control, the T/C [11] was 103 % of control and the T/C [12] was 108 % of control.
`CN(C)c1ccc(C=Nc2ccc(O)cc2)cc1` was tested, and the T/C [13] was 88 % of control, the T/C [14] was 94 % of control and the T/C [15] was 96 % of control.
For `C#C/C=C/CC1OC(C(Br)CC)CC2OC1CC2Br` (centres undefined), the T/C (dose: 75.0 mg/kg/injection, schedule: Q01DX001 (ip), vehicle: carboxymethylcellulose (CMC)) was 94 % of control, the T/C (dose: 150.0 mg/kg/injection, schedule: Q01DX001 (ip), vehicle: carboxymethylcellulose (CMC)) was 96 % of control and the T/C (dose: 300.0 mg/kg/injection, schedule: Q01DX001 (ip), vehicle: carboxymethylcellulose (CMC)) was 96 % of control.
In the case of `CC(=O)C12OC1(C)CC1C3CC=C4CC(O)CCC4(C)C3CCC12C` (centres undefined), the T/C (dose: 100.0 mg/kg/injection, schedule: Q01DX009 (sc), vehicle: steriod suspending solution) is reported as 100 % of control, the T/C (dose: 100.0 mg/kg/injection, schedule: Q04DX003 (sc), vehicle: steriod suspending solution) is reported as 108 % of control and the T/C (dose: 200.0 mg/kg/injection, schedule: Q01DX009 (sc), vehicle: steriod suspending solution) is reported as 109 % of control. The T/C (dose: 200.0 mg/kg/injection, schedule: Q04DX003 (sc), vehicle: steriod suspending solution) was 122 % of control, the T/C (dose: 400.0 mg/kg/injection, schedule: Q01DX009 (sc), vehicle: steriod suspending solution) was 98 % of control and the T/C (dose: 400.0 mg/kg/injection, schedule: Q04DX003 (sc), vehicle: steriod suspending solution) was 103 % of control.
`Cc1ccc(C(=O)c2ccn[nH]2)cc1` was tested, and the T/C [10] was 93 % of control, the T/C [5] was 96 % of control and the T/C [11] was 94 % of control. The T/C [7] was 93 % of control, the T/C [12] was 98 % of control and the T/C [9] was 96 % of control.
In the case of `O=C(Nc1ccc(C2=NCCN2)cc1)Nc1cccc(NC(=O)Nc2cccc(C3=NCCN3)c2)c1`, the T/C (dose: 1.0 mg/kg/injection, schedule: Q01DX Z (ip), vehicle: carboxymethylcellulose (CMC)) is reported as 120 % of control and 90 % of control, the T/C (dose: 2.0 mg/kg/injection, schedule: Q01DX Z (ip), vehicle: carboxymethylcellulose (CMC)) is reported as 101 % of control and 107 % of control and the T/C (dose: 4.0 mg/kg/injection, schedule: Q01DX Z (ip), vehicle: carboxymethylcellulose (CMC)) is reported as 113 % of control. For the same molecule, the T/C (dose: 8.0 mg/kg/injection, schedule: Q01DX Z (ip), vehicle: carboxymethylcellulose (CMC)) was 121 % of control and 244 % of control, the T/C (dose: 8.0 mg/kg/injection, schedule: Q01DX Z (ip), vehicle: water) was 286 % of control and the T/C (dose: 16.0 mg/kg/injection, schedule: Q01DX Z (ip), vehicle: carboxymethylcellulose (CMC)) was 332 % of control. For the same molecule, the T/C (dose: 16.0 mg/kg/injection, schedule: Q01DX Z (ip), vehicle: water) was 172 % of control, the T/C (dose: 31.0 mg/kg/injection, schedule: Q01DX Z (oral), vehicle: water) was 104 % of control and the T/C (dose: 62.0 mg/kg/injection, schedule: Q01DX Z (oral), vehicle: water) was 112 % of control. For the same molecule, the T/C (dose: 125.0 mg/kg/injection, schedule: Q01DX Z (oral), vehicle: water) was 104 % of control and the T/C (dose: 250.0 mg/kg/injection, schedule: Q01DX Z (oral), vehicle: water) was 102 % of control.
For `O=C(O)CC(Nc1ccc([N+](=O)[O-])cc1[N+](=O)[O-])C(=O)O` (centres undefined), the T/C [1] was 96 % of control, the T/C [2] was 100 % of control and the T/C [3] was 120 % of control.
With `Nc1ccccc1C(=O)O` the T/C (dose: 50.0 mg/kg/injection, schedule: Q01DX001 (ip), vehicle: carboxymethylcellulose (CMC)) was 98 % of control, the T/C (dose: 100.0 mg/kg/injection, schedule: Q01DX001 (ip), vehicle: carboxymethylcellulose (CMC)) was 91 % of control and the T/C (dose: 178.0 mg/kg/injection, schedule: Q01DX001 (ip), vehicle: carboxymethylcellulose (CMC)) was 92 % of control. The T/C (dose: 200.0 mg/kg/injection, schedule: Q01DX001 (ip), vehicle: carboxymethylcellulose (CMC)) was 91 % of control, the T/C (dose: 267.0 mg/kg/injection, schedule: Q01DX001 (ip), vehicle: carboxymethylcellulose (CMC)) was 94 % of control and the T/C (dose: 400.0 mg/kg/injection, schedule: Q01DX001 (ip), vehicle: carboxymethylcellulose (CMC)) was 92 % of control. The T/C (dose: 600.0 mg/kg/injection, schedule: Q01DX001 (ip), vehicle: carboxymethylcellulose (CMC)) was 92 % of control.
In the case of `Cc1ccc(S(=O)(=O)/C=C\S(=O)(=O)c2ccc(C)cc2)cc1`, the T/C (dose: 12.5 mg/kg/injection, schedule: Q01DX009 (ip), vehicle: saline) is reported as 98 % of control, the T/C (dose: 25.0 mg/kg/injection, schedule: Q01DX009 (ip), vehicle: saline) is reported as 105 % of control and the T/C (dose: 25.0 mg/kg/injection, schedule: Q04DX003 (ip), vehicle: acetone) is reported as 92 % of control. For the same molecule, the T/C (dose: 50.0 mg/kg/injection, schedule: Q01DX009 (ip), vehicle: saline) was 86 % of control, the T/C (dose: 50.0 mg/kg/injection, schedule: Q04DX003 (ip), vehicle: acetone) was 100 % of control and the T/C (dose: 100.0 mg/kg/injection, schedule: Q01DX001 (ip), vehicle: acetone) was 90 % of control.
For `O=C(Cc1ccccc1)NCCCl`, the T/C (dose: 100.0 mg/kg/injection, schedule: Q04DX002 (ip), vehicle: saline with Tween-80) was 103 % of control, the T/C (dose: 200.0 mg/kg/injection, schedule: Q04DX002 (ip), vehicle: saline with Tween-80) was 103 % of control and the T/C (dose: 400.0 mg/kg/injection, schedule: Q04DX002 (ip), vehicle: saline with Tween-80) was 105 % of control.
`CN(C)CCCOC(=O)C1C2CC3OC(=O)C1C3C2` (centres undefined) was tested, and the T/C [1] was 93 % of control, the T/C [2] was 96 % of control and the T/C [3] was 101 % of control.
For `O=C(O)C1OC1(c1cccc(Cl)c1)c1ccccc1Cl` (centres undefined), the T/C (dose: 100.0 mg/kg/injection, schedule: Q01DX001 (ip), vehicle: olive oil, sesame oil, peanut oil) was 101 % of control and the T/C (dose: 200.0 mg/kg/injection, schedule: Q01DX001 (ip), vehicle: olive oil, sesame oil, peanut oil) was 106 % of control.
With `CCC(=O)CC1CCCC(CC(=O)CC)N1` (centres undefined) the T/C [16] was 96 % of control and the T/C [17] was 104 % of control.
`O=C(O)/C=C(/Oc1ccc(Cl)cc1)C(=O)O` was tested, and the T/C (dose: 100.0 mg/kg/injection, schedule: Q04DX002 (ip), vehicle: other) was 93 % of control, the T/C (dose: 200.0 mg/kg/injection, schedule: Q04DX002 (ip), vehicle: other) was 103 % of control and the T/C (dose: 400.0 mg/kg/injection, schedule: Q04DX002 (ip), vehicle: other) was 100 % of control.
For `NC(=O)NC1CC1c1ccccc1` (centres undefined), the T/C [13] was 101 % of control, the T/C [14] was 95 % of control and the T/C [15] was 120 % of control.
`O=Cc1c(Cl)c(Cl)c(C=O)c(Cl)c1Cl` was tested, and the T/C (dose: 50.0 mg/kg/injection, schedule: Q01DX001 (ip), vehicle: saline) was 103 % of control, the T/C [13] was 103 % of control and the T/C [4] was 107 % of control. For the same molecule, the T/C [5] was 102 % of control, the T/C [14] was 100 % of control and the T/C [6] was 115 % of control. For the same molecule, the T/C [7] was 101 % of control, the T/C [15] was 105 % of control and the T/C [8] was 103 % of control. The T/C [9] was 98 % of control.
`CCNC(=O)N1CCN(c2ccc(Cl)cc2)CC1` was tested, and the T/C (dose: 40.0 mg/kg/injection, schedule: Q04DX003 (ip), vehicle: saline) was 101 % of control, the T/C [16] was 97 % of control and the T/C (dose: 75.0 mg/kg/injection, schedule: Q04DX003 (ip), vehicle: saline) was 98 % of control. The T/C [17] was 101 % of control and the T/C (dose: 150.0 mg/kg/injection, schedule: Q04DX003 (ip), vehicle: saline) was 95 % of control.
